Earlier results on three compounds are cited in patent US6803187B1 (priority 1998, dated 2004).

One data set has as its system HIV protease. The note with it: HIV-1 protease numbering.

`CC(C)(C)NC(=O)[C@@H]1CN(Cc2cccnc2)CCN1C[C@@H](O)C[C@@H](Cc1ccccc1)C(=O)N[C@H]1c2ccccc2C[C@H]1O` [MK-639, indinavir]: the “share of indinavir resistant isolates cross-resistant to nelfinavir” value in the data set with HIV (human, in vivo) is given as “Approximately one third”.

As to `CC(C)(C)NC(=O)[C@@H]1C[C@@H]2CCCC[C@@H]2CN1C[C@@H](O)[C@H](Cc1ccccc1)NC(=O)[C@H](CC(N)=O)NC(=O)c1ccc2ccccc2n1` [Ro 31-8959, saquinavir], the “patients in whom resistant variants emerge” value in the data set on HIV (after 1 year of monotherapy, mutations at positions 90 and/or 48) is “approximately 45%”.

With `CC(C)CN(C[C@@H](O)[C@H](Cc1ccccc1)NC(=O)O[C@H]1CCOC1)S(=O)(=O)c1ccc(N)cc1` [VX-478], in the data set on HIV protease, the “amino acid position/codon whose change confers resistance” value is recorded as 50.
